Experimental data taken from patent EP3262036B1, “THERAPEUTIC PYRIDAZINE COMPOUNDS AND USES THEREOF” (priority 2015, dated 2016).

biological target: BRG1 (Homo sapiens, UniProt P51532); assay: biochemical; format: binding; details: BRG1 HTRF IC50 (µM)
Text: IC50 measurements for inhibitors using BRG1 TR-FRET Binding Assay

Chain of BRG1 (P51532 1448-1575): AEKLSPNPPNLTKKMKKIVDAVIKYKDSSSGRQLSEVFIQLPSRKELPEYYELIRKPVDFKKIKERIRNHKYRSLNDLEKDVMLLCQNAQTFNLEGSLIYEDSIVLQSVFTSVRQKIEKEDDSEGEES

Compared with `CC(=O)N1CCC(c2cc(-c3ccccc3O)nnc2N)CC1` [Example 227, 1-(4-(3-amino-6-(2-hydroxyphenyl)pyridazin-4-yl)piperidin-1-yl)ethanone], `CN1CCC(c2cc(-c3ccccc3O)nnc2N)CC1` [Example 211, 2-(6-amino-5-(1-methylpiperidin-4-yl)pyridazin-3-yl)phenol] is 2.2-fold higher in IC50: 0.0848 µM for the first, 0.183 µM for the second.

First: Nc1nnc(-c2cc(F)ccc2O)cc1-c1ccccc1 [Example 230, 2-(6-amino-5-phenylpyridazin-3-yl)-4-fluorophenol]
Second: Nc1nnc(-c2c(O)cccc2F)cc1-c1ccccc1 [Example 233, 2-(6-amino-5-phenylpyridazin-3-yl)-3-fluorophenol]
The IC50 of the first is 7.9-fold lower: 0.0549 µM for the first, 0.435 µM for the second. The first is the more potent here.

First: CC1CN(c2cc(-c3ccccc3O)nnc2N)CCN1S(=O)(=O)c1ccccc1 (centres unmarked) [Example 109, 2-(6-amino-5-(3-methyl-4-(phenylsulfonyl)piperazin-1-yl)pyridazin-3-yl)phenol]
Second: CC1CN(c2cc(-c3ccccc3O)nnc2N)CCN1C(=O)c1ccccc1 (centres unmarked) [Example 62, (4-(3-amino-6-(2-hydroxyphenyl)pyridazin-4-yl)-2-methylpiperazin-1-yl)(phenyl)methanone]
The IC50 of the first is 1.5-fold higher: 0.0176 µM for the first, 0.0117 µM for the second.

First: Cn1ccnc1CN1CCN(c2cc(-c3ccccc3O)nnc2N)CC1 [Example 99, 2-[6-amino-5-[4-[(1-methylimidazol-2-yl)methyl]piperazin-1-yl]pyridazin-3-yl]phenol]
Second: Cn1cc(CN2CCN(c3cc(-c4ccccc4O)nnc3N)CC2)cn1 [Example 107, 2-[6-amino-5-[4-[(1-methylpyrazol-4-yl)methyl]piperazin-1-yl]pyridazin-3-yl]phenol]
The IC50 of the first is 2.7-fold lower: 0.0324 µM for the first, 0.0877 µM for the second.

Compared with `Nc1nnc(-c2ccccc2O)cc1N1CC2CCC(C1)N2c1ccc(C(=O)O)nc1` [Example 88, 5-(3-(3-amino-6-(2-hydroxyphenyl)pyridazin-4-yl)-3,8-diazabicyclo[3.2.1]octan-8-yl)picolinic acid], `Cn1cc(N2C3CCC2CN(c2cc(-c4ccccc4O)nnc2N)C3)cn1` [Example 48, 2-(6-amino-5-(8-(1-methyl-1H-pyrazol-4-yl)-3,8-diazabicyclo[3.2.1]octan-3-yl)pyridazin-3-yl)phenol] is 7.1-fold lower in IC50: 0.218 µM for the first, 0.0309 µM for the second. The second is the more potent here.

First: CC(C(=O)N(C)C)n1cnc(-c2cc(-c3ccccc3O)nnc2N)c1 (centres unmarked) [Example 197, 2-(4-(3-amino-6-(2-hydroxyphenyl)pyridazin-4-yl)-1H-imidazol-1-yl)-N,N-dimethylpropanamide]
Second: Cn1nccc1-c1cc(-c2ccccc2O)nnc1N [Example 193, 2-(6-amino-5-(1-methyl-1H-pyrazol-5-yl)pyridazin-3-yl)phenol]
The IC50 of the first is 32-fold lower: 0.0339 µM for the first, 1.08 µM for the second.

Compared with `CC(=O)N1[C@@H](C)CN(c2cc(-c3ccccc3O)nnc2N)C[C@@H]1C` [Example 127, 1-((2S,6S)-4-(3-amino-6-(2-hydroxyphenyl)pyridazin-4-yl)-2,6-dimethylpiperazin-1-yl)ethan-1-one], `CC(=O)N1[C@H](C)CN(c2cc(-c3ccccc3O)nnc2N)C[C@@H]1C` [Example 139, 1-((2S,6R)-4-(3-amino-6-(2-hydroxyphenyl)pyridazin-4-yl)-2,6-dimethylpiperazin-1-yl)ethan-1-one] is 3.5-fold lower in IC50: 0.369 µM for the first, 0.106 µM for the second.

First: CN1CCCN(c2cc(-c3ccccc3O)nnc2N)CC1 [Example 2, 2-(6-amino-5-(4-methyl-1,4-diazepan-1-yl)pyridazin-3-yl)phenol]
Second: CS(=O)(=O)CCN1CCN(c2cc(-c3ccccc3O)nnc2N)CC1 [Example 26, 2-(6-amino-5-(4-(2-(methylsulfonyl)ethyl)piperazin-1-yl)pyridazin-3-yl)phenol]
The IC50 of the first is 3-fold higher: 0.296 µM for the first, 0.0978 µM for the second.

Going from `Nc1nnc(-c2ccccc2O)cc1N1CCC(O)C1` (centres unmarked) [Example 38, 1-(3-amino-6-(2-hydroxyphenyl)pyridazin-4-yl)pyrrolidin-3-ol] to `C[C@H](C1CCN(c2cc(-c3ccccc3O)nnc2N)CC1)N(C)C` [Example 65, (R)-2-(6-amino-5-(4-(1-(dimethylamino)ethyl)piperidin-1-yl)pyridazin-3-yl)phenol], the IC50 falls from 0.0921 µM to 0.0276 µM (3.3-fold).

`C[C@H]1CN(c2cc(-c3ccccc3O)nnc2N)CCN1C(=O)C(C)(C)O` [Example 146, (S)-1-(4-(3-amino-6-(2-hydroxyphenyl)pyridazin-4-yl)-2-methylpiperazin-1-yl)-2-hydroxy-2-methylpropan-1-one] and `CC(C)[C@H](N)C(=O)N1CCN(c2cc(-c3ccccc3O)nnc2N)CC1C` (stereo partly drawn) [Example 140, (2S)-2-amino-1-(4-(3-amino-6-(2-hydroxyphenyl)pyridazin-4-yl)-2-methylpiperazin-1-yl)-3-methylbutan-1-one] are within 1.5-fold of each other in IC50: 0.0458 µM for the first, 0.0475 µM for the second.

Going from `Nc1nnc(-c2ccccc2O)cc1N1CCC(c2ccccc2)CC1` [Example 18, 2-(6-amino-5-(4-phenylpiperidin-1-yl)pyridazin-3-yl)phenol] to `Nc1nnc(-c2ccccc2O)cc1N1CCN(c2ccccc2)CC1` [Example 13, 2-(6-amino-5-(4-phenylpiperazin-1-yl)pyridazin-3-yl)phenol], the IC50 falls from 0.0967 µM to 0.0321 µM (3-fold).

Going from `CC(=O)Nc1ccc(-c2ccccc2O)nn1` [Example 205, N-(6-(2-hydroxyphenyl)pyridazin-3-yl)acetamide] to `CC(Oc1cc(-c2ccccc2O)nnc1N)c1cccnc1` (centres unmarked) [Example 171, 2-(6-amino-5-(1-(pyridin-3-yl)ethoxy)pyridazin-3-yl)phenol], the IC50 falls from 1.08 µM to 0.0792 µM (14-fold). The second is the more potent here.

`Nc1nnc(-c2ccccc2O)cc1C1CCN(S(=O)(=O)c2ccccc2)CC1` [Example 224, 2-(6-amino-5-(1-(phenylsulfonyl)piperidin-4-yl)pyridazin-3-yl)phenol] and `CS(=O)(=O)N1CCC(c2cc(-c3ccccc3O)nnc2N)CC1` [Example 228, 2-(6-amino-5-(1-(methylsulfonyl)piperidin-4-yl)pyridazin-3-yl)phenol] are within 1.5-fold of each other in IC50: 0.0602 µM for the first, 0.0537 µM for the second.

`Nc1nnc(-c2ccccc2O)cc1N1CCN(C(=O)c2ccccc2)CC1` [Example 61, (4-(3-amino-6-(2-hydroxyphenyl)pyridazin-4-yl)piperazin-1-yl)(phenyl)methanone] and `CC1CN(c2cc(-c3ccccc3O)nnc2N)CCN1C(=O)c1cccnc1` (centres unmarked) [Example 135, (4-(3-amino-6-(2-hydroxyphenyl)pyridazin-4-yl)-2-methylpiperazin-1-yl)(pyridin-3-yl)methanone] are within 1.5-fold of each other in IC50: 0.0348 µM for the first, 0.0446 µM for the second.

Going from `Nc1nnc(-c2ccccc2O)cc1OC1CCCNC1` (centres unmarked) [Example 245, 2-(6-amino-5-(piperidin-3-yloxy)pyridazin-3-yl)phenol] to `CN1CCC(Oc2cc(-c3ccccc3O)nnc2N)CC1` [Example 172, 2-(6-amino-5-((1-methylpiperidin-4-yl)oxy)pyridazin-3-yl)phenol], the IC50 falls from 0.281 µM to 0.161 µM (1.7-fold). The second is the more potent here.

Compared with `CC(C)[C@H](N)C(=O)N1CCN(c2cc(-c3ccccc3O)nnc2N)C[C@@H]1C` [Example 158, 2-Amino-1-((R)-4-(3-amino-6-(2-hydroxyphenyl)pvridazin-4-yl)-2-methylpiperazin-1-yl)-3-methylbutan-1-one], `CCS(=O)(=O)N1CCN(c2cc(-c3ccccc3O)nnc2N)CC1C` (centres unmarked) [Example 110, 2-(6-amino-5-(4-(ethylsulfonyl)-3-methylpiperazin-1-yl)pyridazin-3-yl)phenol] is 5.2-fold lower in IC50: 0.113 µM for the first, 0.0219 µM for the second. The second is the more potent here.

`CC1CN(c2cc(-c3ccccc3O)nnc2N)CCN1S(=O)(=O)C1CC1` (centres unmarked) [Example 111, 2-(6-amino-5-(4-(cyclopropylsulfonyl)-3-methylpiperazin-1-yl)pyridazin-3-yl)phenol] and `C[C@@H]1CN(c2cc(-c3ccccc3O)nnc2N)CCN1S(=O)(=O)c1nccn1C` [Example 118, (R)-2-(6-amino-5-(3-methyl-4-((1-methyl-1H-imidazol-2-yl)sulfonyl)piperazin-1-yl)pyridazin-3-yl)phenol] are within 1.5-fold of each other in IC50: 0.0197 µM for the first, 0.0281 µM for the second.

First: Nc1nnc(-c2ccccc2O)cc1N1CCc2[nH]ncc2C1 [Example 52, 2-(6-amino-5-(1,4,6,7-tetrahydro-5H-pyrazolo[4,3-c]pyridin-5-yl)pyridazin-3-yl)phenol]
Second: Cc1nc(CN2CCN(c3cc(-c4ccccc4O)nnc3N)CC2)co1 [Example 104, 2-[6-amino-5-[4-[(2-methyloxazol-4-yl)methyl]piperazin-1-yl]pyridazin-3-yl]phenol]
The IC50 of the first is 2.2-fold higher: 0.128 µM for the first, 0.0569 µM for the second.

Going from `CNC(=O)CN1C2CCC1CN(c1cc(-c3ccccc3O)nnc1N)C2` [Example 79, 2-(3-(3-amino-6-(2-hydroxyphenyl)pyridazin-4-yl)-3,8-diazabicyclo[3.2.1]octan-8-yl)-N-methylacetamide] to `CN(C)CC1(O)CCN(c2cc(-c3ccccc3O)nnc2N)CC1` [Example 31, 1-(3-amino-6-(2-hydroxyphenyl)pyridazin-4-yl)-4-((dimethylamino)methyl) piperidin-4-ol], the IC50 falls from 0.139 µM to 0.0208 µM (6.7-fold).

Compared with `CC(C)n1cc(CN2CCN(c3cc(-c4ccccc4O)nnc3N)CC2)cn1` [Example 94, 2-[6-amino-5-[4-[(1-isopropylpyrazol-4-yl)methyl]piperazin-1-yl]pyridazin-3-yl]phenol], `Cc1cc(CC(=O)N2CCN(c3cc(-c4ccccc4O)nnc3N)CC2C)on1` (centres unmarked) [Example 136, 1-(4-(3-amino-6-(2-hydroxyphenyl)pyridazin-4-yl)-2-methylpiperazin-1-yl)-2-(3-methylisoxazol-5-yl)ethan-1-one] is 2.7-fold lower in IC50: 0.122 µM for the first, 0.0444 µM for the second.

First: CC1CN(c2cc(-c3ccccc3O)nnc2N)CCN1C(=O)Cc1ccccn1 (centres unmarked) [Example 125, 1-(4-(3-amino-6-(2-hydroxyphenyl)pyridazin-4-yl)-2-methylpiperazin-1-yl)-2-(pyridin-2-yl)ethan-1-one]
Second: Nc1nnc(-c2ccccc2O)cc1N1CC2CC1CN2c1ccccn1 (centres unmarked) [Example 41, 2-(6-amino-5-(5-(pyridin-2-yl)-2,5-diazabicyclo[2.2.1]heptan-2-yl)pyridazin-3-yl)phenol]
The IC50 of the first is 1.5-fold higher: 0.0426 µM for the first, 0.0282 µM for the second. The second is the more potent here.

`C[C@@H](Oc1cc(-c2ccccc2O)nnc1N)c1cccnc1` [Example 166, (R)-2-(6-amino-5-(1-(pyridin-3-yl)ethoxy)pyridazin-3-yl)phenol] and `Cc1ccc(S(=O)(=O)N2CC=C(c3cc(-c4ccccc4O)nnc3N)CC2)cc1` [Example 222, 2-(6-amino-5-(1-tosyl-1,2,3,6-tetrahydropyridin-4-yl)pyridazin-3-yl)phenol] are within 1.5-fold of each other in IC50: 0.132 µM for the first, 0.0889 µM for the second.
